Measurements: the NIST ThermoML archive (doi:10.1016/j.jct.2019.04.017)
“And” between values parts separate entries of the source, which are not always exact repeats. Equal entries are not always repeated.

Assay: xn = mol fraction of the nth substance listed
Details: 96 kPa, Liquid; for viscosity: Cone and plate viscometry; for electrical conductivity: Frequency=0.001 MHz, Alternating current cell with electrodes

C1CCC2=NCCCN2CC1 [1,8-diaza-7-bicyclo[5.4.0]undecene] + OCC(O)CO
Details | electrical conductivity, 288.1 K [S/m] | electrical conductivity, 293.1 K [S/m] | electrical conductivity, 298.1 K [S/m] | electrical conductivity, 303.1 K [S/m] | electrical conductivity, 308.1 K [S/m] | viscosity, 288.1 K | viscosity, 298.1 K [mPa·s] | viscosity, 308.1 K
x1 = 0.0501 | – | – | – | – | – | 3852 mPa·s | 1458 | 626.5 mPa·s
x1 = 0.0502 | 0.0181 | 0.0243 | 0.0327 | 0.0423 | 0.0534 | – | – | –
x1 = 0.0909 | – | – | – | – | – | 5116 mPa·s | 1802 | 759.4 mPa·s
x1 = 0.0914 | 0.0194 | 0.0272 | 0.0371 | 0.0478 | 0.062 | – | – | –
x1 = 0.1 | 0.0187 | – | 0.0352 | – | 0.0592 | 5432 mPa·s | 1876 | 784.2 mPa·s
x1 = 0.1115 | 0.0182 | 0.0249 | 0.0339 | 0.044 | – | – | – | –
x1 = 0.1266 | 0.0169 | 0.0238 | 0.0317 | 0.0433 | – | – | – | –
x1 = 0.1667 | – | – | – | – | – | 5975 mPa·s | 2092 | 818.8 mPa·s
x1 = 0.1672 | 0.0141 | 0.0208 | 0.0283 | 0.0374 | – | – | – | –
x1 = 0.2 | 0.0116 | 0.0167 | 0.023 | 0.031 | – | 6100 mPa·s and 6110 mPa·s | 2107 | 833.7 mPa·s and 835.4 mPa·s
x1 = 0.2153 | – | – | – | – | – | 6150 mPa·s | 2175 | 838.8 mPa·s
x1 = 0.2306 | – | – | – | – | – | 6006 mPa·s | 2087 | 828.5 mPa·s
x1 = 0.2504 | 0.00817 | 0.0117 | 0.0161 | 0.0204 | – | – | – | –
x1 = 0.287 | 0.00592 | 0.00833 | 0.0112 | 0.015 | – | – | – | –
x1 = 0.3059 | – | – | – | – | – | 5665 mPa·s | 1988 | 771.5 mPa·s
x1 = 0.3333 | – | – | – | – | – | 5582 mPa·s | 1968 | 742.2 mPa·s
x1 = 0.3338 | 0.00385 | 0.00534 | 0.00723 | 0.0103 | – | – | – | –
x1 = 0.4003 | 0.00156 | 0.00223 | 0.00307 | 0.00416 | – | – | – | –
x1 = 0.4011 | – | – | – | – | – | 5043 mPa·s | 1705 | 664.5 mPa·s
x1 = 0.5 | 0.000299 | 0.000456 | 0.000675 | 0.000965 | – | 4049 mPa·s | 1315 | 503 mPa·s
x1 = 0.5632 | – | – | – | – | – | 3138 mPa·s | 1017 | 393.5 mPa·s
x1 = 0.5656 | 0.000105 | 0.00016 | 0.000249 | 0.000356 | – | – | – | –
x1 = 0.625 | – | – | – | – | – | 1906 mPa·s | 616.2 | 224.2 mPa·s
x1 = 0.6255 | 4.63e-05 | 7.22e-05 | 0.000122 | 0.000176 | – | – | – | –
x1 = 0.75 | 8.75e-05 | – | 0.000189 | – | – | 468.1 mPa·s | 186.1 | 84.66 mPa·s
x1 = 0.753 | 8.75e-05 | 0.000125 | 0.000189 | 0.000254 | – | – | – | –
x1 = 0.8333 | 0.000221 | – | 0.000405 | – | – | 119.1 mPa·s | 51 | 33.4 mPa·s
x1 = 0.8334 | 0.000221 | 0.000314 | 0.000405 | 0.000526 | – | – | – | –
x1 = 0.9094 | 0.000432 | 0.000514 | 0.000603 | 0.000695 | – | – | – | –
x1 = 0.95 | 0.000486 | 0.000561 | 0.000638 | 0.000702 | – | – | – | –
x1 = 0.975 | 0.000452 | 0.000511 | 0.000561 | 0.000615 | – | – | – | –
x1 = 1 | 0.000222 | 0.000241 | 0.000267 | 0.000297 | – | 15.35 mPa·s | 10.32 | 8.17 mPa·s
